Consider one molecule from patent publication US11939299B1, “4-((2-(2-(2-(4-methoxyphenyl)-4,5-diphenyl-1H-imidazol-1-yl)acetyl)hydrazono)methyl)benzoic acid as an anti-cancer compound” (KING FAISAL UNIVERSITY, priority 2023, dated 2024).

Format in all cases: cell-based
In one assay the test system is CCRF-CEM. Put plainly: Percentage growth inhibition of in vitro subpanel tumor cell lines, leukemia. Particulars: Homo sapiens, 0.01 mM, read-out: Percentage growth inhibition (GI %). Here is the method: (§1) The anticancer activity of 4-((2-(2-(2-(4-Methoxyphenyl)-4,5-diphenyl-1H-imidazol-1-yl)acetyl)hydrazono)methyl)benzoic acid was assessed against leukemia, non-small cell lung cancer, colon cancer, central nervous system (CNS) cancer, melanoma, ovarian cancer, renal cancer, prostate cancer, and breast cancer.
(§2) Percentage growth inhibition (GI %) of in vitro subpanel tumor cell lines at 0.01 mM concentration for compound 4-((2-(2-(2-(4-Methoxyphenyl)-4,5-diphenyl-1H-imidazol-1-yl)acetyl)hydrazono)methyl)benzoic acid (Labeled as AE21 in the table) can be seen in Table 1 below.

A further assay deals with MOLT-4. Described as above. The conditions noted are these: Homo sapiens; MOLT-4 (Leukemia), 0.01 mM; read-out: Percentage growth inhibition (GI %). The method, then:
as §1, §2

The subject of another assay is RPMI-8226. The assay is described as above. The conditions noted are these: Homo sapiens; RPMI-8226 (Leukemia), 0.01 mM; read-out: Percentage growth inhibition (GI %). Here is the method:
as §1, §2

The test system of another assay is EKVX. In words: Percentage growth inhibition of in vitro subpanel tumor cell lines, non-small cell lung cancer. The conditions noted are these: Homo sapiens, 0.01 mM, read-out: Percentage growth inhibition (GI %). The method, then: as §1, §2
The subject of the next assay is NCI-H226. The description is as above. The conditions noted are these: Homo sapiens, 0.01 mM, read-out: Percentage growth inhibition (GI %). The method, then: as §1, §2
The next assay concerns NCI-H23. Described as above. The conditions noted are these: Homo sapiens, 0.01 mM, read-out: Percentage growth inhibition (GI %). The method, then:
as §1, §2

The next assay has as its system NCI-H322M. The assay is described as above. Particulars: Homo sapiens, 0.01 mM, read-out: Percentage growth inhibition (GI %). Here is the method:
as §1, §2

The next assay relates to NCI-H522. The description is as above. The conditions noted are these: Homo sapiens, 0.01 mM, read-out: Percentage growth inhibition (GI %). Here is the method:
as §1, §2

The subject of another assay is HCT-15. In words: Percentage growth inhibition of in vitro subpanel tumor cell lines, colon cancer. The conditions noted are these: Homo sapiens; HCT-15 (Colon Cancer), 0.01 mM; read-out: Percentage growth inhibition (GI %). Here is the method: as §1, §2
A further assay relates to SF-295. In words: Percentage growth inhibition of in vitro subpanel tumor cell lines, CNS cancer. Particulars: Homo sapiens; SF-295 (CNS Cancer), 0.01 mM; read-out: Percentage growth inhibition (GI %). The method, then: as §1, §2
The next assay concerns SNB-75. The assay is described as above. Particulars: Homo sapiens; SNB-75 (CNS Cancer), 0.01 mM; read-out: Percentage growth inhibition (GI %). Here is the method:
as §1, §2

The subject of a further assay is LOX IMVI. In words: Percentage growth inhibition of in vitro subpanel tumor cell lines, melanoma. The conditions noted are these: Homo sapiens, 0.01 mM, read-out: Percentage growth inhibition (GI %). The method, then:
as §1, §2

For a further assay, the system named is MDA-MB-435. The description is as above. Particulars: Homo sapiens; MDA-MB-435 (Melanoma), 0.01 mM; read-out: Percentage growth inhibition (GI %). The method, then: as §1, §2
For a further assay, the system named is SK-MEL-5. The assay is described as above. The conditions noted are these: Homo sapiens; SK-MEL-5 (Melanoma), 0.01 mM; read-out: Percentage growth inhibition (GI %). The method, then: as §1, §2
The next assay relates to OVCAR-4. In words: Percentage growth inhibition of in vitro subpanel tumor cell lines, ovarian cancer. Particulars: Homo sapiens; OVCAR-4 (Ovarian Cancer), 0.01 mM; read-out: Percentage growth inhibition (GI %). Here is the method:
as §1, §2

For another assay, the system named is A498. Put plainly: Percentage growth inhibition of in vitro subpanel tumor cell lines, renal cancer. Particulars: Homo sapiens, 0.01 mM, read-out: Percentage growth inhibition (GI %). The method, then: as §1, §2
A further assay deals with CAKI-1. The assay is described as above. Particulars: Homo sapiens; CAKI-1 (Renal Cancer), 0.01 mM; read-out: Percentage growth inhibition (GI %). The method, then:
as §1, §2

The subject of a further assay is UO-31. The description is as above. The conditions noted are these: Homo sapiens; UO-31 (Renal Cancer), 0.01 mM; read-out: Percentage growth inhibition (GI %). Here is the method: as §1, §2
For the next assay, the system named is PC-3. In words: Percentage growth inhibition of in vitro subpanel tumor cell lines, prostate cancer. Particulars: Homo sapiens; PC-3 (Prostate Cancer), 0.01 mM; read-out: Percentage growth inhibition (GI %). The method, then: as §1, §2
A further assay concerns HS 578T. In words: Percentage growth inhibition of in vitro subpanel tumor cell lines, breast cancer. The conditions noted are these: Homo sapiens; HS 578T (Breast Cancer), 0.01 mM; read-out: Percentage growth inhibition (GI %). Here is the method: as §1, §2
In the next assay the test system is MCF7. The assay is described as above. Particulars: Homo sapiens, 0.01 mM, read-out: Percentage growth inhibition (GI %). The method, then:
as §1, §2

The next assay has as its system tumor cell lines. Put plainly: Anticancer activity against tumor cell lines (panel, overall statement). Particulars: some tumor cell lines, 0.01 mM concentration. The method, then: as §1, §2

Structures are written as SMILES.

Consider `COc1ccc(-c2nc(-c3ccccc3)c(-c3ccccc3)n2CC(=O)N/N=C/c2ccc(C(=O)O)cc2)cc1` [AE21, 4-((2-(2-(2-(4-Methoxyphenyl)-4,5-diphenyl-1H-imidazol-1-yl)acetyl)hydrazono)methyl)benzoic acid], for which the inhibition (usually the percentage by which the read-out fell short of the control) at 10 µM stood at 2.61% in the assay on CCRF-CEM; 4.6% in the assay with MOLT-4; 0.34% in the assay on RPMI-8226; 10.3% in the assay with EKVX; 6.62% in the assay on NCI-H226; 4.19% with NCI-H23. Moreover, the inhibition at 10 µM in the assay with NCI-H322M was 0.85%; in the assay on NCI-H522, 12.4%; in the assay on HCT-15, 3.82%; in the assay with SF-295, 5.54%; in the assay on SNB-75 it was 18.9%; in the assay with LOX IMVI, 5.6%. Further, the inhibition at 10 µM worked out at 9.17% in the assay with MDA-MB-435; 1.29% with SK-MEL-5; 13.7% in the assay on OVCAR-4; 13.5% in the assay on A498; 6.23% in the assay on CAKI-1; 0.61% with UO-31. The inhibition at 10 µM in the assay on PC-3 was 2.68%; in the assay on HS 578T, 18.6%; in the assay with MCF7 it was 13.4%. Further, the anticancer activity result in the assay on tumor cell lines was “moderate efficiency”.
